Source: patent US8883782B2, “Spiro-tetracyclic ring compounds as beta-secretase modulators and methods of use” (Amgen Inc., priority 2010, dated 2014)
Where two headings read alike, the source gives them in different places.

What was measured:
[1] = tested on: Aβ40 in conditioned medium of cells stably expressing Amyloid Precursor Protein (APP); assay: In vitro BACE cell-based assay (Aβ40 in conditioned medium, sandwich ELISA); details: read-out: HEK cell assay
Procedure: In Vitro BACE Cell-Based Assay
The cell-based assay measures inhibition or reduction of Aβ40 in conditioned medium of test compound treated cells expressing amyloid precursor protein.
Cells stably expressing Amyloid Precursor Protein (APP) were plated at a density of 40K cells/well in 96 well plates (Costar). The cells were cultivated for 24 hours at 37° C. and 5% CO2 in DMEM supplemented with 10% FBS. The test compounds were then added to cells in 10-point dose response concentrations with the starting concentration being either 100 μM or 10 μM. The compounds were diluted from stock solutions in DMSO and the final DMSO concentration of the test compounds on cells was 0.1%. […] The IC50 of the compound was calculated from the percent of control or percent inhibition of Aβ 40 as a function of the concentration of the test compound.
The sandwich ELISA to detect Aβ 40 was performed in 96 well microtiter plates, which were pre-treated with goat anti-rabbit IgG (Pierce). The capture and detecting antibody pair that were used to detect Aβ 40 from cell supernatants were affinity purified pAb40 (Biosource) and biotinylated 6E10 (Signet Labs Inc.), respectively. The optimal concentration for the pAb40 antibody was 3 μg/ml in Superblock/TBS (Pierce) that was supplemented with 0.05% Tween 20 (Sigma).
Cellular supernatants were incubated with the capture antibody for 3 h at 4° C., followed by 3 wash steps in TBS-tween (0.05%). The detecting antibody incubation was for 2 h at 4° C., again followed by the wash steps as described previously. The final readout of the ELISA is Time-Resolved Fluorescence (counts per minute) using Delfia reagents Streptavidin-Europium and Enhancement solutions (Perkin Elmer) and the Victor 2 multilabel counter (Perkin Elmer).

[2] = biological target: Beta Secretase enzyme (BACE) (Homo sapiens, UniProt P56817); assay: In vitro enzymatic BACE FRET (fluorescence resonance energy transfer) assay; assay type: biochemical
Procedure: In Vitro Enzymatic Bace Fret (Fluorescence Resonance Energy Transfer) Assay (Enzyme Assay Data in the Example Table I)
The assay buffer used in this screen is 0.05 M acetate, pH 4.2, 10% DMSO final, 100 uM genapol (which is a nonionic detergent, below its Critical Micelle Concentration). […] This assay is effectively started by the addition of FRET substrate (50 nM) and the combination is incubated for one hour. The FRET assay is terminated with by addition of Tris buffer, which raises the pH to neutrality, and the fluorescence is determined. The FRET substrate is a peptide with commercially available fluorophore and quencher, on opposite sides of the BACE cleavage site.

[3] = Homo sapiens, HEK293, average IC50, HEK cells
[4] = average IC50, enzyme assay, read-out: BACE 1 FRET assay

Sequence of Beta Secretase enzyme (BACE) (P56817 46-501, species assumed): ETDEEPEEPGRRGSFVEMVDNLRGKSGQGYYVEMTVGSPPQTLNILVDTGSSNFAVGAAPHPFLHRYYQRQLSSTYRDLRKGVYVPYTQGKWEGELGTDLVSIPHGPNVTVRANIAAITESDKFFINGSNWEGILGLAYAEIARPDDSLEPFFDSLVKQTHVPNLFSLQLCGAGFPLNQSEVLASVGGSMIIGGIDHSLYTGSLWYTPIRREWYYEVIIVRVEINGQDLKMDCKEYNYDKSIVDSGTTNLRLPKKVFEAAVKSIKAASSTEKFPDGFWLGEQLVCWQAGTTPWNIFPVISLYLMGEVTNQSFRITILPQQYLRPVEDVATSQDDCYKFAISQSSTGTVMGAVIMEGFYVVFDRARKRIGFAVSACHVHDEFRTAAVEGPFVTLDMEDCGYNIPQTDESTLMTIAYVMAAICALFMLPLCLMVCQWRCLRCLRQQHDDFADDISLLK

IC50 [2, 4] | Compound | other results
 | NC1=N[C@@]2(CS1)c1cc(-c3cccnc3F)ccc1Oc1cnc(-c3ccnc(F)c3)cc12 [Example 589, (5S)-7-(2-fluoro-3-pyridinyl)-3-(2-fluoro-4-pyridinyl)spiro[chromeno[2,3-c]pyridine-5,4′-[1,3]thiazol]-2′-amine] | IC50 [1, 3]: 39 nM
 | NC1=N[C@@]2(CO1)c1cc(-c3cccnc3F)ccc1Oc1c(F)cc(-c3ccccn3)cc12 [Example 196, (4S)-4′-fluoro-7′-(2-fluoro-3-pyridinyl)-2′-(2-pyridinyl)spiro[1,3-oxazole-4,9′-xanthen]-2-amine] | IC50 ([1]; Homo sapiens, HEK293, average IC50): 9.7 nM
 | NC1=N[C@]2(CO1)c1cc(-c3cccnc3F)ccc1Oc1c2cc(C2=CCCOC2)nc1F [Example 908, (5R)-3-(5,6-dihydro-2H-pyran-3-yl)-1-fluoro-7-(2-fluoro-3-pyridinyl)spiro[chromeno[2,3-c]pyridine-5,4′-[1,3]oxazol]-2′-amine] | IC50 [1, 3]: 609 nM
0.0261 µM | NC1=N[C@@]2(CO1)c1cc(-c3ccnc(F)c3)ccc1Oc1cnc(C3=CCOCC3)cc12 [Example 547, (5S)-3-(3,6-dihydro-2H-pyran-4-yl)-7-(2-fluoro-4-pyridinyl)spiro[chromeno[2,3-c]pyridine-5,4′-[1,3]oxazol]-2′-amine] | 
 | NC1=N[C@@]2(CO1)c1cc(-c3cccnc3F)ccc1Oc1ncc(C3=CCOCC3)cc12 [Example 460, (5S)-3-(3,6-dihydro-2H-pyran-4-yl)-7-(2-fluoro-3-pyridinyl)spiro[chromeno[2,3-b]pyridine-5,4′-[1,3]oxazol]-2′-amine] | IC50 [1, 3]: 6.5 nM
 | 2′-amino-9-fluoro-7-((3-methyl-3-oxetanyl)ethynyl)spiro[chromeno[2,3-c]pyridine-5,4′-[1,3]oxazol]-3-yl)benzonitrile [Example 694] | IC50 ([1]; average IC50, HEK cells): 1090 nM
4.5 µM | NC1=N[C@@]2(CS1)c1cc(Br)ccc1Oc1c2cc(Cl)nc1F [Example 597, (5S)-7-bromo-3-chloro-1-fluorospiro[chromeno[2,3-c]pyridine-5,4′-[1,3]thiazol]-2′-amine] | 
0.002 µM | NC1=N[C@@]2(CO1)c1cc(-c3c(F)ccnc3F)ccc1Oc1cnc(-c3ccnc(F)c3)cc12 [Example 397, (5S)-7-(2,4-difluoro-3-pyridinyl)-3-(2-fluoro-4-pyridinyl)spiro[chromeno[2,3-c]pyridine-5,4′-[1,3]oxazol]-2′-amine] | 
0.002 µM | NC1=N[C@@]2(CO1)c1cc(-c3cccnc3)ccc1Oc1c2cc(-c2ccnc(F)c2)nc1F [Example 491, (5S)-1-fluoro-3-(2-fluoro-4-pyridinyl)-7-(3-pyridinyl)spiro[chromeno[2,3-c]pyridine-5,4′-[1,3]oxazol]-2′-amine] | 
0.0599 µM | NC1=N[C@@]2(CO1)c1cc(-c3c(F)ccnc3F)ccc1Oc1cnc(Cl)cc12 [Example 399, (5S)-3-chloro-7-(2,4-difluoro-3-pyridinyl)spiro[chromeno[2,3-c]pyridine-5,4′-[1,3]oxazol]-2′-amine] | 
 | NC1=N[C@]2(CO1)c1cc(C3=CCOCC3)ccc1Oc1ccc(-c3cccnc3F)cc12 [Example 136, (R)-2′-(3,6-dihydro-2H-pyran-4-yl)-7′-(2-fluoropyridin-3-yl)-5H-spiro[oxazole-4,9′-xanthen]-2-amine 2,2,2-trifluoroacetate] | IC50 ([2]; BACE 1 FRET assay (uM)): 0.0026 µM
 | NC1=N[C@@]2(CO1)c1cc(-c3cccnc3F)ccc1Oc1cnc(N3CCOCC3)cc12 [Example 890, (5S)-7-(2-fluoro-3-pyridinyl)-3-(4-morpholinyl)spiro[chromeno[2,3-c]pyridine-5,4′-[1,3]oxazol]-2′-amine] | IC50 ([2]; BACE 1 FRET assay (uM)): 0.0013 µM
0.0052 µM | NC1=N[C@@]2(CO1)c1cc(-c3cncc(F)c3)ccc1Oc1c(F)cc([C@@H]3CCOC3)cc12 [Example 297, (4S)-4′-fluoro-7′-(5-fluoro-3-pyridinyl)-2′-((3S)-tetrahydro-3-furanyl)spiro[1,3-oxazole-4,9′-xanthen]-2-amine] | 
0.002 µM | NC1=N[C@@]2(CO1)c1cc(-c3cccc(Cl)c3)ccc1Oc1cnc(N3CCC(F)(F)C3)cc12 [Example 432, (5S)-7-(3-chlorophenyl)-3-(3,3-difluoro-1-pyrrolidinyl)spiro[chromeno[2,3-c]pyridine-5,4′-[1,3]oxazol]-2′-amine] | 
0.0028 µM | NC1=N[C@@]2(CO1)c1cc(-c3cccnc3F)ccc1Oc1c(F)cc([C@H]3CCOC3)cc12 [Example 299, (4S)-4′-fluoro-7′-(2-fluoro-3-pyridinyl)-2′-((3R)-tetrahydro-3-furanyl)spiro[1,3-oxazole-4,9′-xanthen]-2-amine] | 
0.0046 µM | NC1=N[C@@]2(CO1)c1cc(-c3cccnc3F)ccc1Oc1cnc(-c3cncs3)cc12 [Example 576, (5S)-7-(2-fluoro-3-pyridinyl)-3-(1,3-thiazol-5-yl)spiro[chromeno[2,3-c]pyridine-5,4′-[1,3]oxazol]-2′-amine] | 
0.0316 µM | NC1=N[C@@]2(CS1)c1cc(-c3cccc(Cl)c3)ccc1Oc1cnc(Cl)cc12 [Example 593, (5S)-3-chloro-7-(3-chlorophenyl)spiro[chromeno[2,3-c]pyridine-5,4′-[1,3]thiazol]-2′-amine] | 
0.0709 µM | NC1=N[C@@]2(CO1)c1cc(-c3ccc(F)cc3)ccc1Oc1cnc(C3CCOCC3)cc12 [Example 400, (5S)-7-(4-fluorophenyl)-3-(tetrahydro-2H-pyran-4-yl)spiro[chromeno[2,3-c]pyridine-5,4′-[1,3]oxazol]-2′-amine] | 
0.002 µM | CC1(C#Cc2cnc3c(c2)[C@]2(CSC(N)=N2)c2cc(-c4cccnc4F)ccc2O3)COC1 [Example 586, (5S)-7-(2-fluoro-3-pyridinyl)-3-((3-methyl-3-oxetanyl)ethynyl)spiro[chromeno[2,3-b]pyridine-5,4′-[1,3]thiazol]-2′-amine] | 
0.002 µM | CC(C)(C)C#Cc1cc2c(cn1)Oc1ccc(-c3c(F)ccnc3F)cc1[C@@]21COC(N)=N1 [Example 165, (5S)-7-(2,4-difluoro-3-pyridinyl)-3-(3,3-dimethyl-1-butyn-1-yl)spiro[chromeno[2,3-c]pyridine-5,4′-[1,3]oxazol]-2′-amine] | 
0.142 µM | NC1=N[C@@]2(CS1)c1cc(-c3cncc(F)c3)ccc1Oc1cnc(Cl)cc12 [Example 595, (5S)-3-chloro-7-(5-fluoro-3-pyridinyl)spiro[chromeno[2,3-c]pyridine-5,4′-[1,3]thiazol]-2′-amine] | 
0.055 µM | NC1=N[C@@]2(CO1)c1cc(-c3ccnc(F)c3)ccc1Oc1cnc(-c3ccnc(F)c3)cc12 [Example 548, (5S)-3,7-bis(2-fluoro-4-pyridinyl)spiro[chromeno[2,3-c]pyridine-5,4′-[1,3]oxazol]-2′-amine] | 
0.0968 µM | NC1=N[C@@]2(CO1)c1cc(-c3cccnc3)c(F)cc1Oc1c(F)cc(C3=CCCOC3)cc12 [Example 298, (4S)-7′-(5,6-dihydro-2H-pyran-3-yl)-3′,5′-difluoro-2′-(3-pyridinyl)spiro[1,3-oxazole-4,9′-xanthen]-2-amine] | 
0.002 µM | NC1=N[C@@]2(CO1)c1cc(-c3c(F)ccnc3F)ccc1Oc1c(F)cc(C3=CCOCC3)cc12 [Example 565, (4S)-7′-(2,4-difluoro-3-pyridinyl)-2′-(3,6-dihydro-2H-pyran-4-yl)-4′-fluoro spiro[1,3-oxazole-4,9′-xanthen]-2-amine] | 
0.002 µM | NC1=N[C@@]2(CO1)c1cc(-c3cccnc3F)ccc1Oc1c2cc(-c2ccnc(F)c2)nc1F [Example 152, (5S)-1-fluoro-7-(2-fluoro-3-pyridinyl)-3-(2-fluoro-4-pyridinyl)spiro[chromeno[2,3-c]pyridine-5,4′-[1,3]oxazol]-2′-amine] | 
0.025 µM | NC1=N[C@]2(CO1)c1cc(-c3cccc(Cl)c3)ccc1Oc1cnc(N3CCC(F)(F)C3)cc12 [Example 433, (5R)-7-(3-chlorophenyl)-3-(3,3-difluoro-1-pyrrolidinyl)spiro[chromeno[2,3-c]pyridine-5,4′-[1,3]oxazol]-2′-amine] | 

Compound | IC50 [2, 4] | other results
(4S)-4′-fluoro-7′-(2-fluoro-3-pyridinyl)-2′-(6-methoxy-3-pyridinyl)spiro[1,3-oxazole-4,9′-xanthen]-2-amine [Example 224] | 0.002 µM | 
(4S)-4′-fluoro-7′-(2-fluoro-3-pyridinyl)-2′-(6-methyl-3-pyridinyl)spiro[1,3-oxazole-4,9′-xanthen]-2-amine [Example 223] | 0.002 µM | 
